Measured values reported in article PMC5384453, “A multi-functional PEGylated gold(III) compound: potent anti-cancer properties and self-assembly into nanostructures for drug co-delivery” (Chemical Science, 2016).

What was measured:
[1] = test system: NCM460 cells; assay: Flow cytometric analysis of apoptosis with propidium iodide co-staining (Fig. S14, S15); conditions: NCM460, 2 μM
[2] = Systemic toxicity in nude mice bearing HCT116 xenografts (body weight, H&E histopathology, blood biochemistry); assay type: in vivo; conditions: HCT116 xenograft nude mice
Description: (§1) The anti-tumor experiments using mice were approved by the animal ethics committees of Jinan University and The University of Hong Kong. […]
every 2 days for 24 days. The control group received equal volume of PBS only.
During the treatment period, the tumor volume and body weight of the nude mice were measured per two days. The tumor volume was calculated by the equation:
Volume (mm3) = l×w2/2, where l and w were the length and width of the tumor. At the end of the treatment, the nude mice were sacrificed and the tumor weight was […]
H&E staining and immunohistochemical (IHC) analysis of mice tissues. For […]
formaldehyde, embedded with paraffin and sectioned. Subsequently, the tissues were stained with hematoxylin and eosin for histological observation under an optical microscope (magnification: 10×). The expression of p53, Ki67, VEGFR2 and TUNEL was determined by IHC methods as reported previously. S7
Hematological analysis of nude mice bearing HCT116 xenograft. The blood samples of mice without bearing HCT116 xenograft and xenograft-bearing mice treated with 1, 3 and PBS control were collected. The plasma was obtained by centrifuging the blood sample with speed at 3000 rpm. The plasma was then subjected to hematological analysis to determine biochemical indexes of alanine aminotransferase (ALT), asparatate aminotransferase (AST), globulin (GLB), blood urea nitrogen (BUN), uric acid (UA), creatinine (CREA), lactate dehydrogenase (LDH) and creatine kinase (CK) in blood of the mice.
A2780cis xenograft nude mice model was constructed by injecting 2.5×10^6 cells to the right back flank of female BALB/c nude mice. When the tumor volume […]
animal study. The A2780cis xenograft nude mice were randomly divided into 2 groups (n = 5 per group). 1 in PBS (4 mg/kg) or PBS solvent control were injected to the nude mice by intravenous injection once every 2–3 days for 13 days. During the treatment period, the tumor volume and body weight of the nude mice were measured

[3] = mouse
Description: as §1
point of tumor growth inhibition study, the mice treated with complex 1, 3 and Au1a, respectively, were sacrificed and tissues including liver, spleen, lung, kidney and heart were harvested. The tissues were digested with 10% HCl in concentrated HNO3 (0.1 g of tissue/1 mL). The solution mixture was heated at 60 °C for 15 h, and then diluted 50 times by ultra-pure water for ICP-MS analysis.
Determination of in vivo biodistribution of complex 1, 3 and Au1a by ICP-MS.
Nude mice bearing HCT116 xenografts were treated with 1 (13 mg/kg), or equal molar amount of Au1a (2 mg/kg) or 3 (2 mg/kg) through intravenous injection. After 24 h of the injection, the mice were sacrificed and tissues from tumor, liver, spleen, lung, kidney and heart were harvested. The tissues were digested with 10% HCl in concentrated HNO3 (0.1 g of tissue/1 mL). The solution mixture was heated at 60 °C for 15 h, and then diluted 50 times by ultra-pure water for ICP-MS analysis.
Analysis of tumor tissue from mice treated with complexes 1 by UPLC-QTOF-MS. At the end point of tumor growth inhibition study, the mice treated with solvent control or complex 1 were sacrificed and the tumor tissues were harvested, followed by homogenization in 50% ice-cold acetonitrile (0.1 g/300 µL). […]

For `C1=Cc2nc1c(-c1ccccc1)c1ccc([n-]1)c(-c1ccccc1)c1nc(c(-c3ccccc3)c3ccc([n-]3)c2-c2ccccc2)C=C1.[Au+3].[Cl-]` [Au1a, [Au(TPP)]Cl, reference compound], the “viability (Q3 region, corrected)” value ([1]; 24 h) was 61.14% and the “viability (Q3 region, corrected)” value ([1]; 36 h) was 56.64%.

With `COC(=O)c1ccc(C2=C3C=CC(=N3)C(c3ccccc3)=c3ccc4[n]3[Au+][n]3c(ccc32)C(c2ccccc2)=C2C=CC(=N2)C=4c2ccccc2)cc1.[Cl-]` [Compound 3, [Au(TPP–COOCH3)]^+] the “blood biochemistry (organ damage indicators)” value ([2]; 4 mg kg^–1 i.v., 24 days, ALT, GLB, BUN, CK for 1) was “significant damage in the lung, liver and kidney of the mice” and the “histopathological analysis of tissues (H&E)” value ([2]; i.v., 24 days (3: 4 mg kg^–1)) was “damage in normal lung, liver and kidney tissues”.

In the case of “[Au(TPP–COO–PEG5000–OCH3)]Cl [Compound 1]”, the “mouse death / body weight” value ([2]; 2 or 4 mg kg^–1 i.v., 24 days) is reported as “no mouse death or significant loss in body weight” and the “hydrolysis in vivo (species found in tumor tissues)” value [3] is reported as “[Au(TPP–COOH)]^+ was found in the UPLC-QTOF-MS of tumor tissues”.
